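The compound was tested at five concentrations on cells cultured in 96-well plates, with a 48-hour exposure period. The concentration for full growth arrest is given as TGI.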
Experiments:
Test in all cases: NCI anticancer screen, dose series, 48 h
HL-60(TB) leukemia = system: HL-60(TB) leukemia
OVCAR-5 ovarian = system: OVCAR-5 ovarian
UACC-257 melanoma = system: UACC-257 melanoma
EKVX NSCLC = system: EKVX NSCLC
786-0 renal = system: 786-0 renal
DLD-1 colon = system: DLD-1 colon
A549 NSCLC = system: A549 NSCLC
SK-MEL-5 melanoma = system: SK-MEL-5 melanoma
DMS 273 small cell lung = system: DMS 273 small cell lung
UACC-62 melanoma = system: UACC-62 melanoma
HT29 colon = system: HT29 colon
OVCAR-3 ovarian = system: OVCAR-3 ovarian
HOP-92 NSCLC = system: HOP-92 NSCLC
HCC-2998 colon = system: HCC-2998 colon
DMS 114 small cell lung = system: DMS 114 small cell lung
HCT-116 colon = system: HCT-116 colon
NCI-H522 lung = system: NCI-H522 lung
M19-MEL melanoma = system: M19-MEL melanoma
LXFL 529 NSCLC = system: LXFL 529 NSCLC
SNB-19 CNS = system: SNB-19 CNS
CCRF-CEM leukemia = system: CCRF-CEM leukemia
SK-OV-3 ovarian = system: SK-OV-3 ovarian
SW-620 colon = system: SW-620 colon
IGROV1 ovarian = system: IGROV1 ovarian
NCI-H23 lung = system: NCI-H23 lung
TK-10 renal = system: TK-10 renal
SNB-78 CNS = system: SNB-78 CNS
A498 renal = system: A498 renal
K-562 leukemia = system: K-562 leukemia
OVCAR-4 ovarian = system: OVCAR-4 ovarian
KM12 colon = system: KM12 colon
SF-295 CNS = system: SF-295 CNS
HOP-62 NSCLC = system: HOP-62 NSCLC
NCI-H460 lung = system: NCI-H460 lung
SNB-75 CNS = system: SNB-75 CNS
OVCAR-8 ovarian = system: OVCAR-8 ovarian
MALME-3M melanoma = system: MALME-3M melanoma
COLO 205 colon = system: COLO 205 colon
SF-268 CNS = system: SF-268 CNS
M14 melanoma = system: M14 melanoma
UO-31 renal = system: UO-31 renal
ACHN renal = system: ACHN renal
XF 498 CNS = system: XF 498 CNS
U251 CNS = system: U251 CNS
SN12C renal = system: SN12C renal
SK-MEL-28 melanoma = system: SK-MEL-28 melanoma
SF-539 CNS = system: SF-539 CNS
RPMI-8226 leukemia = system: RPMI-8226 leukemia
CAKI-1 renal = system: CAKI-1 renal
KM20L2 colon = system: KM20L2 colon
LOX IMVI melanoma = system: LOX IMVI melanoma
NCI-H226 lung = system: NCI-H226 lung
RXF 393 renal = system: RXF 393 renal
HCT-15 colon = system: HCT-15 colon
MOLT-4 leukemia = system: MOLT-4 leukemia
HOP-18 NSCLC = system: HOP-18 NSCLC
SK-MEL-2 melanoma = system: SK-MEL-2 melanoma

SMILES: CCOC(=O)C1N(S(=O)(=O)c2ccc(C)cc2)CCC12c1ccccc1N(C(C)=O)C2c1ccc(OC)c(OC)c1 (stereo not given)
- TGI (HL-60(TB) leukemia): > 100 µM
- TGI (OVCAR-5 ovarian): > 100 µM
- TGI (UACC-257 melanoma): > 100 µM
- TGI (EKVX NSCLC): > 100 µM
- TGI (786-0 renal): > 100 µM
- TGI (DLD-1 colon): > 100 µM
- TGI (A549 NSCLC): > 100 µM
- TGI (SK-MEL-5 melanoma): > 100 µM
- TGI (DMS 273 small cell lung): > 100 µM
- TGI (UACC-62 melanoma): > 100 µM
- TGI (HT29 colon): > 100 µM
- TGI (OVCAR-3 ovarian): > 100 µM
- TGI (HOP-92 NSCLC): > 100 µM
- TGI (HCC-2998 colon): > 100 µM
- TGI (DMS 114 small cell lung): > 100 µM
- TGI (HCT-116 colon): > 100 µM
- TGI (NCI-H522 lung): > 100 µM
- TGI (M19-MEL melanoma): > 100 µM
- TGI (LXFL 529 NSCLC): > 100 µM
- TGI (SNB-19 CNS): > 100 µM
- TGI (CCRF-CEM leukemia): > 100 µM
- TGI (SK-OV-3 ovarian): > 100 µM
- TGI (SW-620 colon): > 100 µM
- TGI (IGROV1 ovarian): > 100 µM
- TGI (NCI-H23 lung): > 100 µM
- TGI (TK-10 renal): > 100 µM
- TGI (SNB-78 CNS): > 100 µM
- TGI (A498 renal): > 100 µM
- TGI (K-562 leukemia): > 100 µM
- TGI (OVCAR-4 ovarian): > 100 µM
- TGI (KM12 colon): > 100 µM
- TGI (SF-295 CNS): > 100 µM
- TGI (HOP-62 NSCLC): > 100 µM
- TGI (NCI-H460 lung): > 100 µM
- TGI (SNB-75 CNS): > 100 µM
- TGI (OVCAR-8 ovarian): > 100 µM
- TGI (MALME-3M melanoma): > 100 µM
- TGI (COLO 205 colon): > 100 µM
- TGI (SF-268 CNS): > 100 µM
- TGI (M14 melanoma): > 100 µM
- TGI (UO-31 renal): > 100 µM
- TGI (ACHN renal): > 100 µM
- TGI (XF 498 CNS): > 100 µM
- TGI (U251 CNS): > 100 µM
- TGI (SN12C renal): > 100 µM
- TGI (SK-MEL-28 melanoma): > 100 µM
- TGI (SF-539 CNS): > 100 µM
- TGI (RPMI-8226 leukemia): > 100 µM
- TGI (CAKI-1 renal): > 100 µM
- TGI (KM20L2 colon): > 100 µM
- TGI (LOX IMVI melanoma): > 100 µM
- TGI (NCI-H226 lung): > 100 µM
- TGI (RXF 393 renal): > 100 µM

SMILES: C[C@]12CCC(=O)C=C1CC[C@@H]1[C@@H]2[C@@H](O)C[C@@]2(C)[C@H]1CC[C@]2(O)C(=O)COC(=O)COCC(=O)O
- TGI (HL-60(TB) leukemia): > 100 µM
- TGI (OVCAR-5 ovarian): > 100 µM
- TGI (UACC-257 melanoma): > 100 µM
- TGI (EKVX NSCLC): > 100 µM
- TGI (786-0 renal): > 100 µM
- TGI (DLD-1 colon): > 100 µM
- TGI (A549 NSCLC): > 100 µM
- TGI (SK-MEL-5 melanoma): > 100 µM
- TGI (DMS 273 small cell lung): > 100 µM
- TGI (UACC-62 melanoma): > 100 µM
- TGI (HT29 colon): > 100 µM
- TGI (OVCAR-3 ovarian): > 100 µM
- TGI (HOP-92 NSCLC): > 100 µM
- TGI (HCC-2998 colon): > 100 µM
- TGI (DMS 114 small cell lung): > 100 µM
- TGI (HCT-15 colon): > 100 µM
- TGI (HCT-116 colon): > 100 µM
- TGI (NCI-H522 lung): > 100 µM
- TGI (M19-MEL melanoma): > 100 µM
- TGI (SNB-19 CNS): > 100 µM
- TGI (CCRF-CEM leukemia): > 100 µM
- TGI (SK-OV-3 ovarian): > 100 µM
- TGI (SW-620 colon): > 100 µM
- TGI (IGROV1 ovarian): > 100 µM
- TGI (NCI-H23 lung): > 100 µM
- TGI (TK-10 renal): > 100 µM
- TGI (MOLT-4 leukemia): > 100 µM
- TGI (SNB-78 CNS): > 100 µM
- TGI (A498 renal): > 100 µM
- TGI (K-562 leukemia): > 100 µM
- TGI (OVCAR-4 ovarian): > 100 µM
- TGI (KM12 colon): > 100 µM
- TGI (SF-295 CNS): > 100 µM
- TGI (HOP-62 NSCLC): > 100 µM
- TGI (NCI-H460 lung): > 100 µM
- TGI (SNB-75 CNS): > 100 µM
- TGI (HOP-18 NSCLC): > 100 µM
- TGI (OVCAR-8 ovarian): > 100 µM
- TGI (MALME-3M melanoma): > 100 µM
- TGI (COLO 205 colon): > 100 µM
- TGI (SF-268 CNS): > 100 µM
- TGI (M14 melanoma): > 100 µM
- TGI (UO-31 renal): > 100 µM
- TGI (ACHN renal): > 100 µM
- TGI (XF 498 CNS): > 100 µM
- TGI (U251 CNS): > 100 µM
- TGI (SN12C renal): > 100 µM
- TGI (SK-MEL-28 melanoma): > 100 µM
- TGI (SF-539 CNS): > 100 µM
- TGI (SK-MEL-2 melanoma): > 100 µM
- TGI (RPMI-8226 leukemia): > 100 µM
- TGI (CAKI-1 renal): > 100 µM
- TGI (KM20L2 colon): > 100 µM
- TGI (LOX IMVI melanoma): > 100 µM
- TGI (NCI-H226 lung): > 100 µM

SMILES: CN(C)CC(C)(C)/C(=N\Nc1ccccc1)c1ccccc1
- TGI (HL-60(TB) leukemia): 50.6 µM
- TGI (OVCAR-5 ovarian): > 100 µM
- TGI (UACC-257 melanoma): > 100 µM
- TGI (EKVX NSCLC): > 100 µM
- TGI (786-0 renal): > 100 µM
- TGI (DLD-1 colon): > 100 µM
- TGI (A549 NSCLC): > 100 µM
- TGI (SK-MEL-5 melanoma): > 100 µM
- TGI (DMS 273 small cell lung): > 100 µM
- TGI (UACC-62 melanoma): 40.8 µM
- TGI (HT29 colon): > 100 µM
- TGI (OVCAR-3 ovarian): > 100 µM
- TGI (DMS 114 small cell lung): > 100 µM
- TGI (HCT-15 colon): 53.8 µM
- TGI (HCT-116 colon): > 100 µM
- TGI (NCI-H522 lung): > 100 µM
- TGI (M19-MEL melanoma): > 100 µM
- TGI (LXFL 529 NSCLC): 51.4 µM
- TGI (SNB-19 CNS): > 100 µM
- TGI (CCRF-CEM leukemia): > 100 µM
- TGI (SK-OV-3 ovarian): 73.3 µM
- TGI (SW-620 colon): > 100 µM
- TGI (IGROV1 ovarian): > 100 µM
- TGI (NCI-H23 lung): > 100 µM
- TGI (TK-10 renal): 61.1 µM
- TGI (MOLT-4 leukemia): > 100 µM
- TGI (SNB-78 CNS): > 100 µM
- TGI (A498 renal): > 100 µM
- TGI (K-562 leukemia): > 100 µM
- TGI (OVCAR-4 ovarian): > 100 µM
- TGI (KM12 colon): > 100 µM
- TGI (SF-295 CNS): 46.4 µM
- TGI (HOP-62 NSCLC): > 100 µM
- TGI (NCI-H460 lung): > 100 µM
- TGI (SNB-75 CNS): > 100 µM
- TGI (HOP-18 NSCLC): > 100 µM
- TGI (OVCAR-8 ovarian): > 100 µM
- TGI (MALME-3M melanoma): > 100 µM
- TGI (COLO 205 colon): > 100 µM
- TGI (SF-268 CNS): > 100 µM
- TGI (M14 melanoma): 66.5 µM
- TGI (UO-31 renal): 29.3 µM
- TGI (ACHN renal): 48.5 µM
- TGI (U251 CNS): > 100 µM
- TGI (SN12C renal): > 100 µM
- TGI (SK-MEL-28 melanoma): > 100 µM
- TGI (SF-539 CNS): 63.4 µM
- TGI (SK-MEL-2 melanoma): > 100 µM
- TGI (RPMI-8226 leukemia): > 100 µM
- TGI (KM20L2 colon): 36.7 µM
- TGI (LOX IMVI melanoma): 37.6 µM
- TGI (RXF 393 renal): > 100 µM

From PubChem BioAssay (NCI)
